Test [1] deals with XIAP-BIR2 (Homo sapiens (Human), UniProt P98170). Kind of test: BIR binding assay (FRET competition), XIAP BIR2. The conditions noted are these: FRET competition binding; read-out: XIAP BIR2 (pIC50) (converted). The method in brief: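 Compounds in a 15-point, 3-fold series competed with an AlexaFluor647 SMAC peptide (AVPIAQKSE, 200 nM) for 200 nM His-tagged XIAP-BIR2 over 60 min in pH 7.4 HEPES/CHAPS/DTT buffer. Eu-W1024 (2 nM) was then added for 30 min. IC50 and pIC50 were derived from the 615 nm/665 nm emission ratio by variable-slope fit.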

In test [2] the target is cIAP2-BIR3 (Homo sapiens (Human), UniProt Q13489). Description: BIR binding assay (FRET competition), cIAP2 BIR3. The note with it: for cIAP2 BIR3 vs BIR2 separation window: fold separation (FS) for cIAP2.
Test [3] concerns the target cIAP1-BIR3 (Homo sapiens (Human), UniProt Q13490). Description: BIR binding assay (FRET competition), cIAP1 BIR3. The conditions noted are these: for cIAP1 BIR3 vs BIR2 separation window: fold separation (FS) for cIAP1. The method in brief: (§1)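 His-tagged domains (50 nM cIAP1-BIR3, 325 nM cIAP2-BIR2, 325 nM cIAP1-BIR2, 100 nM XIAP-BIR3) compete with compounds for a 200 nM AlexaFluor647-labelled SMAC/DIABLO peptide in HEPES buffer, pH 7.4, for 60 min. Then 2 nM Eu-W1024 is added for 30 min. The 615/665 nm ratio is fit by four-parameter fit to give IC50.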

In test [4] the target is XIAP-BIR3 (Homo sapiens (Human), UniProt P98170). Description: BIR binding assay (FRET competition), XIAP BIR3. The conditions noted are these: for XIAP BIR3 vs BIR2 separation window: fold separation (FS) for XIAP. In outline: as §1
Test [5] addresses cIAP2-BIR2 (Homo sapiens (Human), UniProt Q13489). Description: BIR binding assay (FRET competition), cIAP2 BIR2. The method in brief: as §1
In test [6] the target is cIAP1-BIR2 (Homo sapiens (Human), UniProt Q13490). Kind of test: BIR binding assay (FRET competition), cIAP1 BIR2. In outline:
as §1

In test [7] the test system is Jurkat HIV-luciferase clones. Description: Jurkat latency reversal assay. It counts as cell-based. The conditions noted are these: Homo sapiens, 48 h; Jurkat latency reversal assay potency; read-out: Jurkat pEC50 (converted). In outline:
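Pooled Jurkat clones C16, 115 and N6, each carrying one or two integrated HIV-luciferase proviruses and kept in 500 nM EFV, were exposed to 3-fold, 14-point compound titrations in duplicate (10 μM top, 0.5% DMSO) for 48 h at 37° C. Luciferase luminescence was fitted by four-parameter logistic regression for EC50 and maximal percent activation versus vehicle.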

cIAP1-BIR2, sequence (Q13490 173-257): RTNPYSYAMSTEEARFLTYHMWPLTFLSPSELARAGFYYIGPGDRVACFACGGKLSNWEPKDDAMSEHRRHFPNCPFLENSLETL
cIAP2-BIR3, sequence (Q13489 238-349): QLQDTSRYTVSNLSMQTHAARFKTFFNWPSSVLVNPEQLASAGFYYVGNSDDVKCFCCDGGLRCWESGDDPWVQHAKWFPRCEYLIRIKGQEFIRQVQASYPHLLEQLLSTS
XIAP-BIR2, sequence (P98170 124-240): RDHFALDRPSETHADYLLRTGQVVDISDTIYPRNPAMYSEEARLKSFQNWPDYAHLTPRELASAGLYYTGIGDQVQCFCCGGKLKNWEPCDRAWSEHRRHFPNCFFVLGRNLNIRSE
cIAP2-BIR2, sequence (Q13489 158-242): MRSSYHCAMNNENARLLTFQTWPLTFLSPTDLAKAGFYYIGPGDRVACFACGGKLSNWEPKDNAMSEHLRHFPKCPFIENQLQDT
cIAP1-BIR3, sequence (Q13490 253-363): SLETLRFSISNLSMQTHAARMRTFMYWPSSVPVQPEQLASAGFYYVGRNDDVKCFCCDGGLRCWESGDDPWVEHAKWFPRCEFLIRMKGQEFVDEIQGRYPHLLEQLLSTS
XIAP-BIR3, sequence (P98170 241-356): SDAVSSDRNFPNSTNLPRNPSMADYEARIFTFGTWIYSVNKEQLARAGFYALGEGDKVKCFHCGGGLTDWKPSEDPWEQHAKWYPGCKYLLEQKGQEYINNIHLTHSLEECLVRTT

As to `C[C@@H]1CN(CC(=O)N2CC(C)(C)c3[nH]c(=O)c(Cc4ccc(F)cc4)cc32)[C@@H](CN2CCC(CN(C)C(=O)Cc3cccc(C(=O)N(C)CC4CCN(C[C@H]5CN[C@H](C)CN5CC(=O)N5CC(C)(C)c6[nH]c(=O)c(Cc7ccc(F)cc7)cc65)CC4)c3)CC2)CN1` [Example 98, N-((1-(((2R,5R)-1-(2-(6-(4-fluorobenzyl)-3,3-dimethyl-5-oxo-2,3,4,5-tetrahydro-1H-pyrrolo[3,2-b]pyridin-1-yl)-2-oxoethyl)-5-methylpiperazin-2-yl)methyl)piperidin-4-yl)methyl)-3-(2-(((1-(((2R,5R)-1-(2-(6-(4-fluorobenzyl)-3,3-dimethyl-5-oxo-2,3,4,5-tetrahydro-1H-pyrrolo[3,2-b]pyridin-1-yl)-2-oxoethyl)-5-methylpiperazin-2-yl)methyl)piperidin-4-yl)methyl)(methyl)amino)-2-oxoethyl)-N-methylbenzamide], the IC50 was 10000 to 51300 nM in test [1]; 1.38 to 7.94 nM in test [2]; 1.38 to 7.94 nM in test [3]; 7.94 to 15.8 nM in test [4]; 10000 to 51300 nM in test [5]; 1000 to 3160 nM in test [6]. Further, the “cIAP2 BIR3 vs BIR2 separation window” value in test [2] is reported as “+++ (10,000>FS>1,000)”. The “cIAP1 BIR3 vs BIR2 separation window” value in test [3] is “+++ (10,000>FS>1,000)”. Moreover, the “XIAP BIR3 vs BIR2 separation window” value in test [4] was “++++ (FS>10,000)”. The EC50 in test [7] is 63.1 to 316 nM.

Take `C[C@@H]1CN(CC(=O)N2CC(C)(C)c3[nH]c(=O)c(Cc4ccc(F)cc4)cc32)[C@@H](CN2CCC(CN(C)C(=O)Cc3ccc(CC(=O)N(C)CC4CCN(C[C@H]5CN[C@H](C)CN5CC(=O)N5CC(C)(C)c6[nH]c(=O)c(Cc7ccc(F)cc7)cc65)CC4)cc3)CC2)CN1` [Example 99, 2,2′-(1,4-phenylene)bis(N-((1-(((2R,5R)-1-(2-(6-(4-fluorobenzyl)-3,3-dimethyl-5-oxo-2,3,4,5-tetrahydro-1H-pyrrolo[3,2-b]pyridin-1-yl)-2-oxoethyl)-5-methylpiperazin-2-yl)methyl)piperidin-4-yl)methyl)-N-methylacetamide)]: the IC50 in test [1] was 10000 to 51300 nM; in test [2] it was 7.94 to 15.8 nM; in test [3] it was 1.38 to 7.94 nM; in test [4], 7.94 to 15.8 nM; in test [5], 3160 to 10000 nM; in test [6], 3160 to 10000 nM. Besides, the “cIAP2 BIR3 vs BIR2 separation window” value in test [2] is reported as “+++ (10,000>FS>1,000)”. Besides, the “cIAP1 BIR3 vs BIR2 separation window” value in test [3] is “+++ (10,000>FS>1,000)”. The “XIAP BIR3 vs BIR2 separation window” value in test [4] is “++++ (FS>10,000)”. Besides, the EC50 in test [7] was 63.1 to 316 nM.

For the compound `C[C@@H]1CN(CC(=O)N2CC(C)(C)c3[nH]c(=O)c(Cc4ccc(F)cc4)cc32)[C@@H](CN2CCC(CN(C)Cc3ccc(CN(C)CC4CCN(C[C@H]5CN[C@H](C)CN5CC(=O)N5CC(C)(C)c6[nH]c(=O)c(Cc7ccc(F)cc7)cc65)CC4)cc3)CC2)CN1` [Example 100, 1,1′-(2,2′-((3R,3′R,6R,6′R)-(((((1,4-phenylenebis(methylene))bis(methylazanediyl))bis(methylene))bis(piperidine-4,1-diyl))bis(methylene))bis(3-methylpiperazine-6,1-diyl))bis(acetyl))bis(6-(4-fluorobenzyl)-3,3-dimethyl-1,2,3,4-tetrahydro-5H-pyrrolo[3,2-b]pyridin-5-one)], the IC50 in test [1] is 10000 to 51300 nM; in test [2], 7.94 to 15.8 nM; in test [3] it was 7.94 to 15.8 nM; in test [4] it was 15.8 to 31.6 nM; in test [5], 3160 to 10000 nM; in test [6] it was 1000 to 3160 nM. Moreover, in test [2], the “cIAP2 BIR3 vs BIR2 separation window” value is reported as “+++ (10,000>FS>1,000)”. Moreover, the “cIAP1 BIR3 vs BIR2 separation window” value in test [3] was “+++ (10,000>FS>1,000)”. Also, the “XIAP BIR3 vs BIR2 separation window” value in test [4] is “++++ (FS>10,000)”. Moreover, the EC50 in test [7] is 0.49 to 12.6 nM.

As for `C[C@@H]1CN(CC(=O)N2CC(C)(C)c3[nH]c(=O)c(Cc4ccc(F)cc4)cc32)[C@@H](CN2CCC(CNC(=O)c3ccc(C(=O)NCC4CCN(C[C@H]5CN[C@H](C)CN5CC(=O)N5CC(C)(C)c6[nH]c(=O)c(Cc7ccc(F)cc7)cc65)CC4)cc3)CC2)CN1` [Example 101, N^1,N^4-bis((1-(((2R,5R)-1-(2-(6-(4-fluorobenzyl)-3,3-dimethyl-5-oxo-2,3,4,5-tetrahydro-1H-pyrrolo[3,2-b]pyridin-1-yl)-2-oxoethyl)-5-methylpiperazin-2-yl)methyl)piperidin-4-yl)methyl)terephthalamide], the IC50 in test [1] was 10000 to 51300 nM; in test [2], 1.38 to 7.94 nM; in test [3], 1.38 to 7.94 nM; in test [4] it was 7.94 to 15.8 nM; in test [5] it was 3160 to 10000 nM; in test [6], 3160 to 10000 nM. Moreover, the “cIAP2 BIR3 vs BIR2 separation window” value in test [2] is listed as “++++ (FS>10,000)”. Besides, the “cIAP1 BIR3 vs BIR2 separation window” value in test [3] is on record as “+++ (10,000>FS>1,000)”. In test [4], the “XIAP BIR3 vs BIR2 separation window” value was “++++ (FS>10,000)”. For the same compound, the EC50 in test [7] is 63.1 to 316 nM.

Take `C[C@@H]1CN(CC(=O)N2CC(C)(C)c3[nH]c(=O)c(Cc4ccc(F)cc4)cc32)[C@@H](CN2CCC(CNC(=O)Cc3ccc(CC(=O)NCC4CCN(C[C@H]5CN[C@H](C)CN5CC(=O)N5CC(C)(C)c6[nH]c(=O)c(Cc7ccc(F)cc7)cc65)CC4)cc3)CC2)CN1` [Example 102, 2,2′-(1,4-phenylene)bis(N-((1-(((2R,5R)-1-(2-(6-(4-fluorobenzyl)-3,3-dimethyl-5-oxo-2,3,4,5-tetrahydro-1H-pyrrolo[3,2-b]pyridin-1-yl)-2-oxoethyl)-5-methylpiperazin-2-yl)methyl)piperidin-4-yl)methyl)acetamide)]: the IC50 in test [1] was 10000 to 51300 nM; in test [2] it was 7.94 to 15.8 nM; in test [3], 7.94 to 15.8 nM; in test [4], 7.94 to 15.8 nM; in test [5], 3160 to 10000 nM; in test [6], 3160 to 10000 nM. In addition, the “cIAP2 BIR3 vs BIR2 separation window” value in test [2] was “++++ (FS>10,000)”. The “cIAP1 BIR3 vs BIR2 separation window” value in test [3] is “+++ (10,000>FS>1,000)”. The “XIAP BIR3 vs BIR2 separation window” value in test [4] is reported as “++++ (FS>10,000)”. Also, in test [7], the EC50 is 63.1 to 316 nM.

For the compound `C[C@@H]1CN(CC(=O)N2CC(C)(C)c3[nH]c(=O)c(Cc4ccc(F)cc4)cc32)[C@@H](CN2CCC(CCNC(=O)c3ccc(C(=O)NCCC4CCN(C[C@H]5CN[C@H](C)CN5CC(=O)N5CC(C)(C)c6[nH]c(=O)c(Cc7ccc(F)cc7)cc65)CC4)cc3)CC2)CN1` [Example 103, N^1,N^4-bis(2-(1-(((2R,5R)-1-(2-(6-(4-fluorobenzyl)-3,3-dimethyl-5-oxo-2,3,4,5-tetrahydro-1H-pyrrolo[3,2-b]pyridin-1-yl)-2-oxoethyl)-5-methylpiperazin-2-yl)methyl)piperidin-4-yl)ethyl)terephthalamide], the IC50 in test [1] was 10000 to 51300 nM; in test [2], 7.94 to 15.8 nM; in test [3] it was 7.94 to 15.8 nM; in test [4] it was 7.94 to 15.8 nM; in test [5], 3160 to 10000 nM; in test [6], 3160 to 10000 nM. The “cIAP2 BIR3 vs BIR2 separation window” value in test [2] is “+++ (10,000>FS>1,000)”. The “cIAP1 BIR3 vs BIR2 separation window” value in test [3] was “+++ (10,000>FS>1,000)”. For the same compound, the “XIAP BIR3 vs BIR2 separation window” value in test [4] was “++++ (FS>10,000)”. Also, in test [7], the EC50 was 63.1 to 316 nM.

In the case of `C[C@@H]1CN(CC(=O)N2CC(C)(C)c3[nH]c(=O)c(Cc4ccc(F)cc4)cc32)[C@@H](CN2CCC(CCN(C)C(=O)c3ccc(C(=O)N(C)CCC4CCN(C[C@H]5CN[C@H](C)CN5CC(=O)N5CC(C)(C)c6[nH]c(=O)c(Cc7ccc(F)cc7)cc65)CC4)cc3)CC2)CN1` [Example 104, N^1,N^4-bis(2-(1-(((2R,5R)-1-(2-(6-(4-fluorobenzyl)-3,3-dimethyl-5-oxo-2,3,4,5-tetrahydro-1H-pyrrolo[3,2-b]pyridin-1-yl)-2-oxoethyl)-5-methylpiperazin-2-yl)methyl)piperidin-4-yl)ethyl)-N^1,N^4-dimethylterephthalamide], the IC50 is 10000 to 51300 nM in test [1]; 1.38 to 7.94 nM in test [2]; 1.38 to 7.94 nM in test [3]; 1.38 to 7.94 nM in test [4]; 1000 to 3160 nM in test [5]; 1000 to 3160 nM in test [6]. Further, the “cIAP2 BIR3 vs BIR2 separation window” value in test [2] is reported as “+++ (10,000>FS>1,000)”. For the same compound, in test [3], the “cIAP1 BIR3 vs BIR2 separation window” value is given as “+++ (10,000>FS>1,000)”. For the same compound, the “XIAP BIR3 vs BIR2 separation window” value in test [4] was “++++ (FS>10,000)”. Also, the EC50 in test [7] is 63.1 to 316 nM.

Values taken from US20250326771A1, “PIPERAZINE DERIVATIVES USEFUL IN HIV THERAPY” (VIIV HEALTHCARE COMPANY, priority 2022, published 2025).
